The target of this experiment is Platelet-derived growth factor receptor beta (Homo sapiens, UniProt P09619). The experiment is described as follows: PDGFR-β Tyrosine Kinase Inhibitory Action. How it is done:
This DMSO solution was diluted by 8 times with an assay buffer 1 (50 mM HEPES (pH 7.0), 0.02% NaN3, 0.01% Bovine Serum Albumin, 0.1 mM orthovanadate, 1 mM Dithiothreitol, 5 mM MgCl2, and 1 mM MnCl2) and further diluted by 5 times with an assay buffer 2 (50 mM HEPES (pH 7.0), 0.02% NaN3, 0.01% Bovine Serum Albumin, 0.1 mM orthovanadate, 1 mM Dithiothreitol, 5 mM MgCl2, 1 mM MnCl2, and 40 nM Supplemented Enzymatic Buffer (cisbio)).2. Measurement of PDGFR-β Tyrosine Kinase Inhibitory ActionFor the measurement, the HTRF KinEASE-TK kit from Cisbio Bioassays SAS was used. To a 384 well plate, the test substance solution was added at 4 μL each, then 2 μL of a PDGFR-β enzyme solution (final concentration of 1 ng/μL, Carna Biosciences, Inc.) and 4 μL of a substrate solution obtained by adding 0.6 μM ATP to TK substrate-3-biotin (cisbio) were added, and the solution was allowed to react at 30° C. for 30 minutes at a final concentration of the test substance being 0.01 to 10,000 nM.Thereafter, 10 μL of a detection solution (cisbio) was added to each well and allowed to react at 30° C. for 1 hour. The fluorescence intensity was measured with a microplate reader (Spectra Max M5, Molecular device).

The text below walks through data of BindingDB's records for patent US12509424 (Nippon Shinyaku, 2025).

Chain of Platelet-derived growth factor receptor beta (P09619 whole entry): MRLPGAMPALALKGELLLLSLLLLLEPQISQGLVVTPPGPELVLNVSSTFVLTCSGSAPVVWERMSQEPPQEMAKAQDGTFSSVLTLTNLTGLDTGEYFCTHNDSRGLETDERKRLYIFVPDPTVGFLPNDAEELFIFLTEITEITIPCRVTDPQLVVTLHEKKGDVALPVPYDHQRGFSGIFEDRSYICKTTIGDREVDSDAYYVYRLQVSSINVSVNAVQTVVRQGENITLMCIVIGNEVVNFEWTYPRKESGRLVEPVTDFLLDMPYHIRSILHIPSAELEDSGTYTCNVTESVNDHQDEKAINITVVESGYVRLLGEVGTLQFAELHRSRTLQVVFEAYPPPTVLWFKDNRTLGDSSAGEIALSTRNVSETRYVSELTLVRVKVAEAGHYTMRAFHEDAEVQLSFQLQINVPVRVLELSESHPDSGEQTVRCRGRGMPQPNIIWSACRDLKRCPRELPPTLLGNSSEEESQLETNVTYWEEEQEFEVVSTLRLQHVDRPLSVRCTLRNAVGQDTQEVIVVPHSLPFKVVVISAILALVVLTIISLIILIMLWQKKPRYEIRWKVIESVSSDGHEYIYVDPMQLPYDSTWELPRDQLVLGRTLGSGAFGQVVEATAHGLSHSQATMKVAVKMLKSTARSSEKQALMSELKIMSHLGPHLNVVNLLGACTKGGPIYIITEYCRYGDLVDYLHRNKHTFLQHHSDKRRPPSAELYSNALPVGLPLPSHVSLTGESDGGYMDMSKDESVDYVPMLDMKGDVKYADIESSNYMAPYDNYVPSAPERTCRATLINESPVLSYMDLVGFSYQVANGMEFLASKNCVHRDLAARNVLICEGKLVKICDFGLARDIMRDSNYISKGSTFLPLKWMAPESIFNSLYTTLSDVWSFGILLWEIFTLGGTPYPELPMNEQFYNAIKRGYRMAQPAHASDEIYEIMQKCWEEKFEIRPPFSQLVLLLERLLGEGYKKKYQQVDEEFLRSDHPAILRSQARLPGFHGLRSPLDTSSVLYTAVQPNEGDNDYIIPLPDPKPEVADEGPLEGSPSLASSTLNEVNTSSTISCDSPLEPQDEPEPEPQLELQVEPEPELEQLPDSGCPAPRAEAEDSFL

Turning to `CC(=O)Nc1ccc(CNc2cc(C(=O)N[C@H]3CCCC[C@@H]3O)ccc2C)cn1` [US12509424, Example 116], the IC50 (commonly the concentration needed to halve the response being measured) came to 66 nM.
